From patent publication US20260034277A1, “SYSTEMS AND METHODS FOR PATHOGEN INACTIVATION OF BLOOD PRODUCTS” (Cerus Corporation, priority 2024, published 2026)

Assays:
[1] = Stability of S-303 after reconstitution, HPLC percent total peak area; format: physicochemical
[2] = as above; format: physicochemical; remark: listed apart in the source
Excerpt: Increasing the throughput of RBC processing over the current process may benefit from the preparation of multi-use “bulk” containers of S-303 and GSH stock solutions for transfer (e.g., sequential transfer) into multiple processing sets to treat multiple RBC units. However, the instability of S-303 after reconstitution in the current INTERCEPT Blood System technology would generally not be suitable for such a multi-dose container approach. Toward an objective of multi-dose “bulk” dosing, which would require much longer hold times post-reconstitution, studies were performed to evaluate the stability of S-303 under different conditions, such as when reconstituted at higher concentrations. As control, S-303 was reconstituted at a concentration of 6.1 mM. Additional study arms reconstituted S-303 at 9.4 mM, 14.4 mM and 28.8 mM (Table 10). S-303 levels were measured over 120 min after reconstitution by standard HPLC and calculated as total peak area (e.g., area under the peak, area under the curve) to determine percent stability (percent total area).
Subsequent studies were performed in a similar manner as the above to further evaluate S-303 stability at higher concentrations than tested initially, including reconstitution at 40 mM, 50 mM and 75 mM concentrations.

[3] = system: RBCs; experiment: Hemolysis after addition to RBCs of S-303/GSH reconstituted in WFI or saline; format: cell-based
Method: A study was performed to evaluate water (WFI, water for injection) as an alternative to saline for reconstitution of S-303 and/or GSH, for potential advantages such as manufacturing, cost of goods and/or regulatory requirements. Initially, the combinations of S-303 and GSH both reconstituted in WFI, or alternatively GSH reconstituted in WFI and S-303 reconstituted in saline were compared to the standard method of reconstituting both GSH and S-303 in saline. Following addition to RBCs, the level of hemolysis was evaluated due to water potentially being a hypotonic environment for the RBC.
Based on the extended stability data above for reconstituting S-303 at higher concentrations, an opportunity is provided for using bulk S-303 containers and a dosing device as described above for reconstituting S-303 at higher concentrations followed by a dilution step with diluent as part of the transfer of S-303 to the RBC in the mixing container. With such a dilution step, water may be substituted as an alternative to saline in the reconstitution step for the bulk S-303, followed by dilution in saline prior to each transfer step into individual RBC processing sets. To evaluate the feasibility of water reconstitution followed by saline dilution, an additional study was performed. […]

Structure (SMILES): O=C(CCNc1c2ccccc2nc2ccccc12)OCCN(CCCl)CCCl [S-303, β-alanine, N-(acridin-9-yl), 2-[bis(2-chloroethyl)amino]ethyl ester]
- stability time, extrapolation of the data in a best fit curve ([1]; 100 mM concentration): approximately 170 min
- stability time, extrapolation of the data in a best fit curve ([1]; 150 mM concentration): ~240 min
- stability, glass vials vs hemocompatible blood bags of different sheeting materials ([2]; 75 mM): no differences in stability observed
- Mean % stability ([2]; reconstituted at 6.1 mM (control), 1 min): 98%
- Mean % stability ([2]; reconstituted at 6.1 mM (control), 10 min): 97%
- Mean % stability ([2]; reconstituted at 6.1 mM (control), 20 min): 95%
- Mean % stability ([2]; reconstituted at 6.1 mM (control), 30 min): 94%
- Mean % stability ([2]; reconstituted at 6.1 mM (control), 45 min): 92%
- Mean % stability ([2]; reconstituted at 6.1 mM (control), 60 min): 90%
- Mean % stability ([2]; reconstituted at 6.1 mM (control), 90 min): 87%
- Mean % stability ([2]; reconstituted at 6.1 mM (control), 120 min): 85%
- Mean % stability ([2]; reconstituted at 9.4 mM, 1 min): 98%
- Mean % stability ([2]; reconstituted at 9.4 mM, 10 min): 97%
- Mean % stability ([2]; reconstituted at 9.4 mM, 20 min): 96%
- Mean % stability ([2]; reconstituted at 9.4 mM, 30 min): 95%
- Mean % stability ([2]; reconstituted at 9.4 mM, 45 min): 93%
- Mean % stability ([2]; reconstituted at 9.4 mM, 60 min): 92%
- Mean % stability ([2]; reconstituted at 9.4 mM, 90 min): 90%
- Mean % stability ([2]; reconstituted at 9.4 mM, 120 min): 87%
- Mean % stability ([2]; reconstituted at 14.4 mM, 1 min): 99%
- Mean % stability ([2]; reconstituted at 14.4 mM, 10 min): 97%
- Mean % stability ([2]; reconstituted at 14.4 mM, 20 min): 96%
- Mean % stability ([2]; reconstituted at 14.4 mM, 30 min): 96%
- Mean % stability ([2]; reconstituted at 14.4 mM, 45 min): 95%
- Mean % stability ([2]; reconstituted at 14.4 mM, 60 min): 94%
- Mean % stability ([2]; reconstituted at 14.4 mM, 90 min): 92%
- Mean % stability ([2]; reconstituted at 14.4 mM, 120 min): 90%
- Mean % stability ([2]; reconstituted at 28.8 mM, 1 min): 99%
- Mean % stability ([2]; reconstituted at 28.8 mM, 10 min): 98%
- Mean % stability ([2]; reconstituted at 28.8 mM, 20 min): 97%
- Mean % stability ([2]; reconstituted at 28.8 mM, 30 min): 97%
- Mean % stability ([2]; reconstituted at 28.8 mM, 45 min): 96%
- Mean % stability ([2]; reconstituted at 28.8 mM, 60 min): 95%
- Mean % stability ([2]; reconstituted at 28.8 mM, 90 min): 94%
- Mean % stability ([2]; reconstituted at 28.8 mM, 120 min): 92%
- percent stable ([2]; reconstituted at 28.8 mM, up to 60 minutes): > 95%
- stability ([2]; reconstituted at 75 mM, through 150 min): at least 95%
- hemolysis ([3]; S-303 reconstituted at 28.8 mM or 50 mM in WFI, diluted to 6 mM in saline prior to addition to RBCs, GSH in WFI (FIG. 7)): eliminated the issue of hydrolysis previously observed
- level of hemolysis ([3]; S-303 reconstituted in WFI, after addition to RBCs, compared with saline reconstitution (FIG. 6)): notable levels of hemolysis
